Source: US20240408093A1, “HETEROBIFUNCTIONAL COMPOUNDS AND THEIR USE IN TREATING DISEASE” (HALDA THERAPEUTICS OPCO, INC., priority 2022, published 2024)

Assays:
KRAS G12C [1] = target: T1, KRAS G12C (Homo sapiens, UniProt P01116, G12C); test: KRAS G12C cellular target engagement assay (SW1573 cells); assay type: cell-based; set-up: host or cells: SW1573; conditions: 17 hours, read-out: TE50 (the source's name)
Experimental: SW1573 cells (ATCC CRL-2170) were cultured in RPMI 1640 (Gibco A1049101), supplemented with 10% Heat-inactivated FBS (Gibco Cat. #A38400-01) and 1% Penicillin/Streptomycin (Gibco Cat. #15140-122) in an incubator set at 37° C. and 5% CO2. Cells were seeded at 100,000 cells/ml in 1 ml of complete media in a 24-well, tissue culture-treated plate (Falcon 353226) and incubated overnight. Cells were treated with increasing concentrations of compound and let incubate at 37C and 5% CO2 for 17 hours, after which media was aspirated and cells were lysed in 75 uL RIPA Lysis and Extraction Buffer (Thermo 89901) supplemented with 5 mM MgCl2, Protease and Phosphatase inhibitor cocktail (Thermo 1861281), and Universal Nuclease (Thermo 88700). Plates with RIPA were shaken at 4° C. at 600 rpm for 15 min. After shaking samples, they were collected and spun down at 21,000 g for 15 min at 4° C. Following centrifugation, ˜10 ug of lysate was added to Laemmli Sample Buffer (Bio-Rad 1610747) plus 10% beta-mercaptoethanol, boiled for 15 minutes at 65° C. and loaded onto 12% Mini-PROTEAN TGX™ Precast Protein Gels (Bio-Rad). Protein was transferred to a nitrocellulose membrane (Thermo LC2000) using the iBlot 2 Dry Blotting System (Thermo). After transfer, membranes were washed in 1× TBST (Bioland Scientific LLC TBST0103) 3× for 5 min. Following the wash, blocking buffer (Rockland MB-070) was added for 1 hour at room temperature. Primary antibodies against KRAS (LifeSpan Bio LS-C175665) and actin (Cell Signaling Technology 8457) were added overnight at 4° C. Membranes were then washed again 3× for 5 min in 1× TBST. Secondary antibodies (LI-COR 926-68072 and 926-68073) were added and shaken for 1 hr at room temperature. Membranes were then washed 3× for 5 min in 1×TBST and developed. Membranes were placed on an Odyssey imager (LI-COR).
Target sequence in this assay (P01116 1-188 isoform P01116-2 G12C): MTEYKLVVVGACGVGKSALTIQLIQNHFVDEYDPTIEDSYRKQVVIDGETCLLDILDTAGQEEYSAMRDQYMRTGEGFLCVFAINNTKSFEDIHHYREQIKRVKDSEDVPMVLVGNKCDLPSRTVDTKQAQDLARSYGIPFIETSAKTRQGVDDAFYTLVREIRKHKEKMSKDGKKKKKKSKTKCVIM

KRAS G12C [2] = target: T1, KRAS G12C; test: KRAS G12C nucleotide exchange assay (SOS1-mediated, HTRF); assay type: biochemical; set-up: GST-tagged KRAS G12C (amino acids 2-169); conditions: 1 hr pre-incubation
Procedure, shortened: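 GST-tagged KRAS G12C (aa 2-169, 30 nM) pre-incubated 1 h at RT with compound (10-point, 3-fold dilution from 10 μM), then SOS1 (aa 564-1049, 20 nM) and GTP-DY-647P1 (0.15 μM) added. Exchange read by HTRF with anti-GST Tb antibody. IC50 from sigmoidal variable-slope fit.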
Target sequence in this assay (P01116 2-169 isoform P01116-2 G12C): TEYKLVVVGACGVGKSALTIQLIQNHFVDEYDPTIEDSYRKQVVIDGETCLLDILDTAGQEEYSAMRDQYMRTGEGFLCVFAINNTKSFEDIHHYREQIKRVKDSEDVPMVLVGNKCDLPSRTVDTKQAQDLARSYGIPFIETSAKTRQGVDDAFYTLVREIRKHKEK

[3] = tested on: HEK293 cells (ATCC CRL-1573); test: Cellular growth inhibition assay, HEK293 cells (Example 16); assay type: cell-based; conditions: Homo sapiens, 72 hours, CellTiter-Glo 2.0
HeLa cells (ATCC CCL-2) = test: Cellular growth inhibition assay, HeLa cells (Example 16); assay type: cell-based; conditions: Homo sapiens, 72 hours, CellTiter-Glo 2.0

Row | SMILES | EC50 (KRAS G12C [1]) [nM] | IC50 (KRAS G12C [2]) [nM] | GI50 [3] [nM] | GI50 (HeLa cells (ATCC CCL-2)) [nM]
1 | C=C(COc1ccc(Cl)cc1NC(=O)NCc1ccc2c(c1)CN(C1CCC(=O)NC1=O)C2=O)C(=O)N1CCN(c2nc(OC[C@@H]3CCCN3C)nc3c2CCN(c2cccc4cccc(Cl)c24)C3)C[C@@H]1CC#N (some centres unmarked) [Compound I-52] | 250 to 5000 | < 100 | 500 to 1500 | 1500 to 10000
2 | C=C(COc1cc(Cl)cc(NC(=O)NCc2ccc3c(c2)CN(C2CCC(=O)NC2=O)C3=O)c1)C(=O)N1CC2(CC(n3nc(-c4ccc5c(cnn5C)c4)c(-c4c(Cl)c(C)cc5[nH]ncc45)c3C)C2)C1 (centres unmarked) [Compound I-56] | 5000 to 10000 | 100 to 5000 | 500 to 1500 | < 500
3 | C=C(CN(C)c1cccc(NC(=O)NCc2ccc3c(c2)CN(C2CCC(=O)NC2=O)C3=O)c1)C(=O)N1CCN(c2nc(OC[C@@H]3CCCN3C)nc3c2CCN(c2cccc4cccc(Cl)c24)C3)C[C@@H]1CC#N (some centres unmarked) [Compound I-58] | 5000 to 10000 | 5000 to 10000 | 1500 to 10000 | 1500 to 10000
4 | C=C(COc1cc(F)c(F)cc1NC(=O)NCc1ccc2c(c1)CN(C1CCC(=O)NC1=O)C2=O)C(=O)N1CCN(c2nc(OC[C@@H]3CCCN3C)nc3c2CCN(c2cccc4cccc(Cl)c24)C3)C[C@@H]1CC#N (some centres unmarked) [Compound I-62] | 250 to 5000 | < 100 | > 10000 | > 10000
5 | C=C(COc1ccccc1CNC(=O)NCc1ccc2c(c1)CN(C1CCC(=O)NC1=O)C2=O)C(=O)N1CCN(c2nc(OC[C@@H]3CCCN3C)nc3c2CCN(c2cccc4cccc(Cl)c24)C3)C[C@@H]1CC#N (some centres unmarked) [Compound I-63] | 250 to 5000 | < 100 | > 10000 | > 10000
6 | C=C(COc1cc(Cl)cc(NC(=O)NCc2cc3c(cc2F)C(=O)N(C2CCC(=O)NC2=O)C3)c1)C(=O)N1CCN(c2nc(OC[C@@H]3CCCN3C)nc3c2CCN(c2cccc4cccc(Cl)c24)C3)C[C@@H]1CC#N (some centres unmarked) [Compound I-64] | 250 to 5000 | < 100 | 500 to 1500 | > 10000
7 | C=C(COc1cc(Cl)c(OC)cc1NC(=O)NCc1ccc2c(c1)CN(C1CCC(=O)NC1=O)C2=O)C(=O)N1CC2(CC(n3nc(-c4ccc5c(cnn5C)c4)c(-c4c(Cl)c(C)cc5[nH]ncc45)c3C)C2)C1 (centres unmarked) [Compound I-66] | 250 to 5000 | 100 to 5000 | < 500 | 500 to 1500
8 | C=C(COc1cc(NC(=O)NCc2ccc3c(c2)CN(C2CCC(=O)NC2=O)C3=O)cc(OC)c1)C(=O)N1CC2(CC(n3nc(-c4ccc5c(cnn5C)c4)c(-c4c(Cl)c(C)cc5[nH]ncc45)c3C)C2)C1 (centres unmarked) [Compound I-67] | 5000 to 10000 | 100 to 5000 | > 10000 | > 10000
9 | C=C(COc1cc(NC(=O)NCc2ccc3c(c2F)CN(C2CCC(=O)NC2=O)C3=O)cc(C(F)(F)F)c1)C(=O)N1CC2(CC(n3nc(-c4ccc5c(cnn5C)c4)c(-c4c(Cl)c(C)cc5[nH]ncc45)c3C)C2)C1 (centres unmarked) [Compound I-68] | 250 to 5000 | 100 to 5000 | < 500 | > 10000
10 | C=C(COC(=O)c1c(C)csc1NC(=O)NCc1ccc2c(c1)CN(C1CCC(=O)NC1=O)C2=O)C(=O)N1CCN(c2nc(OC[C@@H]3CCCN3C)nc3c2CCN(c2cccc4cccc(Cl)c24)C3)C[C@@H]1CC#N (stereo partly drawn) [Compound I-72, 2-[(2S)-4-[7-(8-chloro-1-naphthyl)-2-[[(2S)-1-methylpyrrolidin-2-yl]methoxy]-6,8-dihydro-5H-pyrido[3,4-d]pyrimidin-4-yl]-2-(cyanomethyl)piperazine-1-carbonyl]allyl 2-[[2-(2,6-dioxo-3-piperidyl)-1-oxo-isoindolin-5-yl]methylcarbamoylamino]-4-methyl-thiophene-3-carboxylate] | 5000 to 10000 | < 100 | 1500 to 10000 | 1500 to 10000
11 | C=C(COC(=O)NCc1cc(Cl)cc(NC(=O)NCc2ccc3c(c2)CN(C2CCC(=O)NC2=O)C3=O)c1)C(=O)N1CCN(c2nc(OC[C@@H]3CCCN3C)nc3c2CCN(c2cccc4cccc(Cl)c24)C3)C[C@@H]1CC#N (some centres unmarked) [Compound I-73] | < 250 | < 100 | < 500 | 1500 to 10000
12 | C=C(COC(=O)NCCCc1cc(Cl)cc(NC(=O)NCc2ccc3c(c2)CN(C2CCC(=O)NC2=O)C3=O)c1)C(=O)N1CCN(c2nc(OC[C@@H]3CCCN3C)nc3c2CCN(c2cccc4cccc(Cl)c24)C3)C[C@@H]1CC#N (some centres unmarked) [Compound I-74] | < 250 | < 100 | 500 to 1500 | 1500 to 10000
13 | C=C(COc1cc(NC(=O)NCc2ccc3c(c2)CN(C2CCC(=O)NC2=O)C3=O)cc(F)c1F)C(=O)N1CCN(c2nc(OC[C@@H]3CCCN3C)nc3c2CCN(c2cccc4cccc(Cl)c24)C3)C[C@@H]1CC#N (some centres unmarked) [Compound I-75] | 5000 to 10000 | < 100 | > 10000 | > 10000
14 | C=C(COc1ccc(Cl)cc1NC(=O)NCc1ccc2c(c1)CN(C1CCC(=O)NC1=O)C2=O)C(=O)N1CC2(CC(n3nc(-c4ccc5c(cnn5C)c4)c(-c4c(Cl)c(C)cc5[nH]ncc45)c3C)C2)C1 (centres unmarked) [Compound I-76] | 250 to 5000 | 100 to 5000 | < 500 | 500 to 1500
15 | C=C(COc1cc(NC(=O)NCc2ccc3c(c2)CN(C2CCC(=O)NC2=O)C3=O)cc(C(F)(F)F)c1)C(=O)N1CC2(CC(n3nc(-c4ccc5c(cnn5C)c4)c(-c4c(Cl)c(C)cc5[nH]ncc45)c3C)C2)C1 (centres unmarked) [Compound I-77] | 250 to 5000 | 100 to 5000 | 500 to 1500 | > 10000
16 | C=C(COc1cc(Cl)cc(NC(=O)NCc2ccc3c(c2)CN(C2CCC(=O)NC2=O)C3=O)c1F)C(=O)N1CCN(c2nc(OC[C@@H]3CCCN3C)nc3c2CCN(c2cccc4cccc(Cl)c24)C3)C[C@@H]1CC#N (some centres unmarked) [Compound I-84] | > 10000 | > 10000 | < 500 | 1500 to 10000
17 | C=C(COc1cc(NC(=O)NCc2ccc3c(c2F)CN(C2CCC(=O)NC2=O)C3=O)cc(C(F)(F)F)c1)C(=O)N1CCN(c2nc(OC[C@@H]3CCCN3C)nc3c2CCN(c2cccc4cccc(Cl)c24)C3)C[C@@H]1CC#N (some centres unmarked) [Compound I-85] | < 250 | < 100 | 1500 to 10000 | > 10000
18 | C=C(COc1c(Cl)cccc1NC(=O)NCc1ccc2c(c1)CN(C1CCC(=O)NC1=O)C2=O)C(=O)N1CCN(c2nc(OC[C@@H]3CCCN3C)nc3c2CCN(c2cccc4cccc(Cl)c24)C3)C[C@@H]1CC#N (some centres unmarked) [Compound I-86] | 250 to 5000 | < 100 | < 500 | 500 to 1500
19 | C=C(COc1cc(C(F)(F)F)c(Cl)cc1NC(=O)NCc1ccc2c(c1)CN(C1CCC(=O)NC1=O)C2=O)C(=O)N1CCN(c2nc(OC[C@@H]3CCCN3C)nc3c2CCN(c2cccc4cccc(Cl)c24)C3)C[C@@H]1CC#N (some centres unmarked) [Compound I-88] | < 250 | < 100 | < 500 | 500 to 1500
20 | C=C(COc1cc(NC(=O)NCc2ccc3c(c2)CN(C2CCC(=O)NC2=O)C3=O)ccc1OC)C(=O)N1CCN(c2nc(OC[C@@H]3CCCN3C)nc3c2CCN(c2cccc4cccc(Cl)c24)C3)C[C@@H]1CC#N (some centres unmarked) [Compound I-89] | 250 to 5000 | < 100 | > 10000 | > 10000
21 | C=C(COc1c(CNC(=O)Nc2ccc(C)c(Cl)c2)ccc2c1CN(C1CCC(=O)NC1=O)C2=O)C(=O)N1CCN(c2nc(OC[C@@H]3CCCN3C)nc3c2CCN(c2cccc4cccc(Cl)c24)C3)C[C@@H]1CC#N (some centres unmarked) [Compound I-90] | < 250 | < 100 | < 500 | > 10000
22 | C=C(COc1cc(Cl)cc(NC(=O)NCc2ccc3c(c2F)CN(C2CCC(=O)NC2=O)C3=O)c1)C(=O)N1CCN(c2nc(OC[C@@H]3CCCN3C)nc3c2CCN(c2cccc4cccc(Cl)c24)C3)C[C@@H]1CC#N (some centres unmarked) [Compound I-116] | < 250 | < 100 | 1500 to 10000 | > 10000
23 | C=C(COc1cc(-c2ccccn2)ccc1CNc1nc(N[C@H](CC)CO)nc2c1ncn2C(C)C)C(=O)N1CCN(c2nc(OC[C@@H]3CCCN3C)nc3c2CCN(c2cccc4cccc(Cl)c24)C3)C[C@@H]1CC#N [II-186] | 250 to 5000 | < 100 | 500 to 1500 | 1500 to 10000
